Results published in patent US10544143B2, “4-azaindole compounds” (BRISTOL-MYERS SQUIBB COMPANY, priority 2017, dated 2020).

Tests used:
human TLR7 = human TLR7 (Homo sapiens (Human), UniProt Q9NYK1); experiment: TLR7 inhibition reporter assay (HEK-Blue SEAP); format: cell-based; conditions: HEK-Blue cells overexpressing human TLR7, SEAP reporter, gardiquimod 7.5 μM
human TLR8 = human TLR8 (Homo sapiens (Human), UniProt Q9NR97); experiment: TLR8 inhibition reporter assay (HEK-Blue SEAP); conditions: read-out: TLR8 IC50; HEK-Blue cells overexpressing human TLR8, SEAP reporter, R848 15.9 μM;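 further: SEAP driven by IFN-β minimal promoter carrying NF-κB and AP-1 sites, compounds dosed 0.05 nM to 50 µM for 22 h, inhibition scaled between agonist-plus-DMSO and reference-inhibitor wells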
Chain of human TLR8 (Q9NR97 27-1041): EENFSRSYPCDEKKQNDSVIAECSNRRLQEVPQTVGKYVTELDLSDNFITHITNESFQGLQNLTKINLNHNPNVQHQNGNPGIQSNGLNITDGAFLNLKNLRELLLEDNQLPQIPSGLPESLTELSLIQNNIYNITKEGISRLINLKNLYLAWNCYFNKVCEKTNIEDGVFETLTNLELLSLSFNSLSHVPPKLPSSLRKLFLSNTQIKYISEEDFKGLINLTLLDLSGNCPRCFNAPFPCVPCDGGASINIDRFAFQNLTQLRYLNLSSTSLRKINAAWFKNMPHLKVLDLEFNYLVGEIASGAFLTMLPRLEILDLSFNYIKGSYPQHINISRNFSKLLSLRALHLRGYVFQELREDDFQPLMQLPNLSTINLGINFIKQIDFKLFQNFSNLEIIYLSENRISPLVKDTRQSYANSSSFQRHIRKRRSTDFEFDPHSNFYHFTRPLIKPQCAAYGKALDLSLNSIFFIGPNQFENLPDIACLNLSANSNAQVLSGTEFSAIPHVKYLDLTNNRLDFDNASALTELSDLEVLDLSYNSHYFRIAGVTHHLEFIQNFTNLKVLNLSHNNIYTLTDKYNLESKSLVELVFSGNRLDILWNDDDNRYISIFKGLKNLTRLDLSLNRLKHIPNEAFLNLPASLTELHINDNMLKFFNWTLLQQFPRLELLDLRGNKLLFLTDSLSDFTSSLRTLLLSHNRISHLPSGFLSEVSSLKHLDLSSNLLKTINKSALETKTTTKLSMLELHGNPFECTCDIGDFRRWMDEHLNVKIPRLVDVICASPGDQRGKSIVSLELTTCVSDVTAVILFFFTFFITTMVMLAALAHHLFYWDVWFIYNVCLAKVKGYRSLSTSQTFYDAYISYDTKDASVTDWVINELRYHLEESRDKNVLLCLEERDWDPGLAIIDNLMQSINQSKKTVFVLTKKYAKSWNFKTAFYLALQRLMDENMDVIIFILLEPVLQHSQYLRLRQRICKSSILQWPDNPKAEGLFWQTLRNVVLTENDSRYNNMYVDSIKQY
Protocol: HEK-Blue™-cells (Invivogen) overexpressing human TLR7, TLR8 or TLR9 receptors were used for screening inhibitors of these receptors using an inducible SEAP (secreted embryonic alkaline phosphatase) reporter gene under the control of the IFN-β minimal promoter fused to five NF-κB and AP-1-binding sites. Briefly, cells are seeded into Greiner 384 well plates (15000 cells per well for TLR7, 20,000 for TLR8 and 25,000 for TLR9) and then treated with test compounds in DMSO to yield a final dose response concentration range of 0.05 nM-50 μM. After a 30 minute compound pre-treatment at room temperature, the cells are then stimulated with a TLR7 ligand (gardiquimod at a final concentration of 7.5 μM), TLR8 ligand (R848 at a final concentration of 15.9 μM) or TLR9 ligand (ODN2006 at a final concentration of 5 nM) to activate NF-κB and AP-1 which induce the production of SEAP. After a 22 hour incubation at 37° C., 5% CO2, SEAP levels are determined with the addition of HEK-Blue™ Detection reagent (Invivogen), a cell culture medium that allows for detection of SEAP, according to manufacturer's specifications.

human TLR9 = human TLR9 (Homo sapiens (Human), UniProt Q9NR96); experiment: TLR9 inhibition reporter assay (HEK-Blue SEAP); conditions: read-out: TLR9 IC50; HEK-Blue cells overexpressing human TLR9, SEAP reporter, ODN2006 5 nM;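 further: SEAP driven by an IFN-β minimal promoter with NF-κB and AP-1 sites, read after 22 h, compounds dosed 0.05 nM–50 µM, inhibition scaled between agonist plus DMSO and reference-inhibitor wells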
Chain of human TLR9 (Q9NR96 26-1032): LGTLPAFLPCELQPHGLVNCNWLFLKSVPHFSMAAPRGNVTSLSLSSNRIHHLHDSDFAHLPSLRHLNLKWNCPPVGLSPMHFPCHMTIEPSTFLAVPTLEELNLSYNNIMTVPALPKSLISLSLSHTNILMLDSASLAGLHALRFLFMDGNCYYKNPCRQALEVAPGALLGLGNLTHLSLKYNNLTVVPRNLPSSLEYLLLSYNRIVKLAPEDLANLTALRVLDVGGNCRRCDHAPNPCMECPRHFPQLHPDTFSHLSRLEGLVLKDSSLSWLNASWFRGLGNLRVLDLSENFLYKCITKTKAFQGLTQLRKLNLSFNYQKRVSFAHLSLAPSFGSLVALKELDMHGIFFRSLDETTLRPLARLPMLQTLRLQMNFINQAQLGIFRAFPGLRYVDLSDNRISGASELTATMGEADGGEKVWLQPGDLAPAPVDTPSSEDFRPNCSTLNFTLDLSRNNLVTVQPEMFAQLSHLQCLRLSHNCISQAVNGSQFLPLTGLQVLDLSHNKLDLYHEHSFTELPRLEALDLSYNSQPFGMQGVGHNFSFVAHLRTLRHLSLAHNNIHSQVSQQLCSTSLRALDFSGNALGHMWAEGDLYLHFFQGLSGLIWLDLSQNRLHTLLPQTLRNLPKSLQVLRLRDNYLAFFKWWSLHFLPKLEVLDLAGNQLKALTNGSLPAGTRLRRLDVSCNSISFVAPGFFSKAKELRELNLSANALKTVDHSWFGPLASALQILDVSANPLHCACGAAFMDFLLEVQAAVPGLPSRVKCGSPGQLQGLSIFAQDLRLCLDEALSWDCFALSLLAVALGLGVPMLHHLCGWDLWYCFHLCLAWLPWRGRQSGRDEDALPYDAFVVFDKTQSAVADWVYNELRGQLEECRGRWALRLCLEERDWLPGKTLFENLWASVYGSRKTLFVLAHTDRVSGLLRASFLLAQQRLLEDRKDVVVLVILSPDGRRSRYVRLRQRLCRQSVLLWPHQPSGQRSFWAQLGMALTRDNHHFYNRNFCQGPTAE

Chain of human TLR7 (Q9NYK1 27-1049): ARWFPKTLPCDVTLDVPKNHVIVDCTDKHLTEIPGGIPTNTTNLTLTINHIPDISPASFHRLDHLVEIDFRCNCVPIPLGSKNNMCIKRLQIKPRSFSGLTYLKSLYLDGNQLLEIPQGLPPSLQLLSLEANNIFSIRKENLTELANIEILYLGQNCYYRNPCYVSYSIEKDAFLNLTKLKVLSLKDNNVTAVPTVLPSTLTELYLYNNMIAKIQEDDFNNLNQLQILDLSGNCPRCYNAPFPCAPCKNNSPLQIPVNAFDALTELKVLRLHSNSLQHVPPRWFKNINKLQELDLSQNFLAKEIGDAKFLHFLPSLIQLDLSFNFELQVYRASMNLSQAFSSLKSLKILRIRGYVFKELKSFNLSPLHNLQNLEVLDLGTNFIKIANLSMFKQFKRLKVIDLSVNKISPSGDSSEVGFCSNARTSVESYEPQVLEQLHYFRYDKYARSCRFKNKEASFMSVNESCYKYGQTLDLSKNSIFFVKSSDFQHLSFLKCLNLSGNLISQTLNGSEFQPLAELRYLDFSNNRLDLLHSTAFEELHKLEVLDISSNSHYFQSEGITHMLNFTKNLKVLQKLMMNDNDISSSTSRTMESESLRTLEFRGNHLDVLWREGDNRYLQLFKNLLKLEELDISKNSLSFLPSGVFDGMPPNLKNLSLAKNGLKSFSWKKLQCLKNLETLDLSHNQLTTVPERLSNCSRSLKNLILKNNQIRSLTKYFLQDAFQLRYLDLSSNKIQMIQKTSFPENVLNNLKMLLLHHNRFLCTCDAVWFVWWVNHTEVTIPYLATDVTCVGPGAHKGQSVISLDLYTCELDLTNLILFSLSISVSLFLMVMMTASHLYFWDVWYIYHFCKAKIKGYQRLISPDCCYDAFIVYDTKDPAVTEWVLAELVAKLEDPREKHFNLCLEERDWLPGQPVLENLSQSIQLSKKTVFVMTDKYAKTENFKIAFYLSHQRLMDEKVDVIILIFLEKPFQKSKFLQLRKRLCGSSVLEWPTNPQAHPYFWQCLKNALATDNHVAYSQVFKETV

Row | Structure (SMILES) | IC50 (human TLR7) [nM] | IC50 (human TLR8) [nM] | IC50 (human TLR9) [nM]
1 | Cc1c(-c2[nH]c3ccc(C4CCC(NC5CCS(=O)(=O)C5)CC4)nc3c2C(C)C)cn2ncnc2c1C (stereo not drawn) [Example 470] | 1.3 | 6 | 7420
2 | Cc1c(-c2[nH]c3ccc(C4CCC(NCC5CCCCS5(=O)=O)CC4)nc3c2C(C)C)cn2ncnc2c1C (stereo not drawn) [Example 471] | 2.8 | 3.2 | 4710
3 | Cc1c(-c2[nH]c3ccc(C4CCC(N(CC#N)CC5(S(C)(=O)=O)CC5)CC4)nc3c2C(C)C)cn2ncnc2c1C (stereo not drawn) [Example 475] | 1.4 | 2.2 | 3500
4 | Cc1c(-c2[nH]c3ccc(C4CCC(N(C)CC5(S(C)(=O)=O)CC5)CC4)nc3c2C(C)C)cn2ncnc2c1C (stereo not drawn) [Example 476] | 0.81 | 2.6 | 9750
5 | Cc1c(-c2[nH]c3ccc(C4CCC(N(CC#N)CC5(S(C)(=O)=O)CC5)CC4)nc3c2C(C)C)cn2ncnc2c1C (stereo not drawn) [Example 478] | 13 | 15 | 24500
6 | Cc1c(-c2[nH]c3ccc(C4CCC(N(C)CC5(S(C)(=O)=O)CC5)CC4)nc3c2C(C)C)cn2ncnc2c1C (stereo not drawn) [Example 479] | 2.9 | 10 | 23700
7 | CCN(CC1(S(C)(=O)=O)CC1)C1CCC(c2ccc3[nH]c(-c4cn5ncnc5c(C)c4C)c(C(C)C)c3n2)CC1 (stereo not drawn) [Example 480] | 2 | 14 | 11700
8 | Cc1c(-c2[nH]c3ccc(C4CCC(N(CCO)CC5(S(C)(=O)=O)CC5)CC4)nc3c2C(C)C)cn2ncnc2c1C (stereo not drawn) [Example 481] | 0.82 | 3.9 | 13000
9 | Cc1c(-c2[nH]c3ccc(C4CCC(N(CCO)CC5(S(C)(=O)=O)CC5)CC4)nc3c2C(C)C)cn2ncnc2c1C (stereo not drawn) [Example 482] | 96 | 238 | > 50000
10 | Cc1c(-c2[nH]c3ccc(C4CCC5(CC4)CNC5)nc3c2C(C)C)cn2ncnc2c1C [Example 491, 6-(3-isopropyl-5-(2-azaspiro[3.5]nonan-7-yl)-1H-pyrrolo[3,2-b]pyridin-2-yl)-7,8-dimethyl-[1,2,4]triazolo[1,5-a]pyridine] | 0.89 | 8 | 677
11 | Cc1c(-c2[nH]c3ccc(C4CCC5(CC4)CN(C(C)C)C5)nc3c2C(C)C)cn2ncnc2c1C [Example 493] | 1760 | 3790 | > 50000
12 | Cc1c(-c2[nH]c3ccc(C4CCC(NC(C)(C)C(=O)N5CCOCC5)CC4)nc3c2C(C)C)cn2ncnc2c1C (stereo not drawn) [Example 496] | 7.5 | 2.1 | 2620
13 | Cc1cc2[nH]c(-c3cn4ncnc4c(C)c3C)c(C(C)C)c2nc1C1CCC(NC2COC2)CC1 (stereo not drawn) [Example 502] | 0.79 | 5.1 | 2900
14 | Cc1cc2[nH]c(-c3cn4ncnc4c(C)c3C)c(C(C)C)c2nc1C1CCC(NC2COC2)CC1 (stereo not drawn) [Example 503] | 1.4 | 9.2 | 2500
15 | Cc1c(-c2[nH]c3cc(F)c(C4CCC(NC5CCOCC5)CC4)nc3c2C(C)C)cn2ncnc2c1C (stereo not drawn) [Example 504] | 0.55 | 0.64 | 3740
16 | Cc1c(-c2[nH]c3cc(F)c(C4CCC(NC5CCOCC5)CC4)nc3c2C(C)C)cn2ncnc2c1C (stereo not drawn) [Example 505] | 3.5 | 4.9 | 7600
17 | Cc1c(-c2[nH]c3cc(F)c(C4CCC(N)CC4)nc3c2C(C)C)cn2ncnc2c1C (stereo not drawn) [Example 506] | 0.41 | 0.42 | 3180

Row | Structure (SMILES) | IC50 (human TLR7) [nM] | IC50 (human TLR8) [nM] | IC50 (human TLR9) [nM]
18 | Cc1c(-c2[nH]c3cc(F)c(C4CCC(N)CC4)nc3c2C(C)C)cn2ncnc2c1C (stereo not drawn) [Example 507] | 1.1 | 2.4 | 8490
19 | CCN(CC(=O)N(C)C)C1CCC(c2nc3c(C(C)C)c(-c4cn5ncnc5c(C)c4C)[nH]c3cc2F)CC1 (stereo not drawn) [Example 508] | 1.1 | 3.3 | 6850
20 | CCN(CC(=O)N(C)C)C1CCC(c2nc3c(C(C)C)c(-c4cn5ncnc5c(C)c4C)[nH]c3cc2F)CC1 (stereo not drawn) [Example 509] | 17 | 30 | 9100
21 | CCN(CCS(C)(=O)=O)C1CCC(c2nc3c(C(C)C)c(-c4cn5ncnc5c(C)c4C)[nH]c3cc2F)CC1 (stereo not drawn) [Example 510] | 5.9 | 28 | > 50000
22 | CCN(CCS(C)(=O)=O)C1CCC(c2nc3c(C(C)C)c(-c4cn5ncnc5c(C)c4C)[nH]c3cc2F)CC1 (stereo not drawn) [Example 511] | 5.8 | 4.8 | > 50000
23 | Cc1cc(-c2[nH]c3ccc(C4CCNCC4)nc3c2C(C)C)cc(C)n1 [Example 512] | 1.1 | 5.6 | 304
24 | CC(C)c1c(-c2ccc(=O)n(C)c2)[nH]c2ccc(C3CCNCC3)nc12 [Example 513] | 319 | 307 | 545
25 | Cc1cc(-c2[nH]c3ccc(C4CCNCC4)nc3c2C(C)C)nn(C)c1=O [Example 514] | 38 | 44 | 7110
26 | Cc1cc(-c2[nH]c3ccc(C4CCNCC4)nc3c2C(C)C)cn(C)c1=O [Example 515] | 7.9 | 21 | 223
27 | Cc1cc(-c2[nH]c3ccc(C4CCNCC4)nc3c2C(C)C)cn2ncnc12 [Example 516] | 0.22 | 1.9 | 155
28 | Cc1cc(-c2[nH]c3ccc(C4CCNCC4)nc3c2C(C)C)cn2nnnc12 [Example 517] | 1.1 | 6 | 150
29 | Cc1cc(-c2[nH]c3ccc(C4CCNCC4)nc3c2C(C)C)cn2cnnc12 [Example 518] | 1.6 | 32 | 721
30 | Cc1c(-c2[nH]c3ccc(C4CCNCC4)nc3c2C(C)C)cn(C)c(=O)c1C [Example 519] | 8.3 | 12 | 362
31 | COc1cc(-c2[nH]c3ccc(C4CCNCC4)nc3c2C(C)C)cn2ncnc12 [Example 520] | 0.8 | 7 | 285
32 | Cc1c(-c2[nH]c3ccc(C4CCNCC4)nc3c2C(C)C)cn2ncnc2c1C [Example 521] | 0.62 | 1.3 | 238
33 | Cc1cc(-c2[nH]c3cc(C)c(C4CCNCC4)nc3c2C(C)C)cc(C)n1 [Example 522] | 2.6 | 495 | 144
34 | COc1cc(-c2[nH]c3cc(C)c(C4CCNCC4)nc3c2C(C)C)cn2ncnc12 [Example 523] | 1.2 | 147 | 1470

The remaining lines, values ahead:

Row | IC50 (human TLR7) [nM] | IC50 (human TLR8) [nM] | IC50 (human TLR9) [nM] | Structure (SMILES)
35 | 1.2 | 3.5 | 413 | CCN(CC(=O)N(C)C)C1CCC(c2ccc3[nH]c(-c4cn5ncnc5c(C)c4C)c(C(C)C)c3n2)CC1 (stereo not drawn) [Example 467]
36 | 0.98 | 2.9 | 1710 | Cc1c(-c2[nH]c3ccc(C4CCC(N)CC4)nc3c2C(C)C)cn2ncnc2c1C (stereo not drawn) [Example 469]
37 | 0.34 | 1.1 | 2510 | Cc1c(-c2[nH]c3ccc(C4CCC(NC5(C)COC5)CC4)nc3c2C(C)C)cn2ncnc2c1C (stereo not drawn) [Example 472]
38 | 7.1 | 9.6 | 7370 | Cc1c(-c2[nH]c3ccc(C4CCC(NC5(C)COC5)CC4)nc3c2C(C)C)cn2ncnc2c1C (stereo not drawn) [Example 473]
39 | 0.46 | 0.43 | 1450 | Cc1c(-c2[nH]c3ccc(C4CCC(NCC5(C)COC5)CC4)nc3c2C(C)C)cn2ncnc2c1C (stereo not drawn) [Example 474]
40 | 8.3 | 6 | 6160 | Cc1c(-c2[nH]c3ccc(C4CCC(NCC5(C)COC5)CC4)nc3c2C(C)C)cn2ncnc2c1C (stereo not drawn) [Example 477]
41 | 0.94 | 1.2 | 5130 | Cc1c(-c2[nH]c3ccc(C4CCC(NC5(CO)COC5)CC4)nc3c2C(C)C)cn2ncnc2c1C (stereo not drawn) [Example 483]
42 | 6.1 | 11 | 7070 | Cc1c(-c2[nH]c3ccc(C4CCC(NC5(CO)COC5)CC4)nc3c2C(C)C)cn2ncnc2c1C (stereo not drawn) [Example 484]
43 | 1.1 | 2.2 | 2520 | Cc1c(-c2[nH]c3ccc(C4CCC(NCC(=O)NC(C)(C)C)CC4)nc3c2C(C)C)cn2ncnc2c1C (stereo not drawn) [Example 485]
44 | 0.75 | 0.49 | 2290 | CNC(=O)C(C)(C)NC1CCC(c2ccc3[nH]c(-c4cn5ncnc5c(C)c4C)c(C(C)C)c3n2)CC1 (stereo not drawn) [Example 487]
45 | 11 | 8.4 | 5360 | COCCN(C)C(=O)CNC1CCC(c2ccc3[nH]c(-c4cn5ncnc5c(C)c4C)c(C(C)C)c3n2)CC1 (stereo not drawn) [Example 488]
46 | 20 | 20 | 6670 | Cc1c(-c2[nH]c3ccc(C4CCC(NCC(=O)NC(C)(C)C)CC4)nc3c2C(C)C)cn2ncnc2c1C (stereo not drawn) [Example 489]
47 | 5.2 | 2.8 | 14100 | Cc1c(-c2[nH]c3ccc(C4CCC(NC5(C(=O)N(C)C)CCCC5)CC4)nc3c2C(C)C)cn2ncnc2c1C (stereo not drawn) [Example 494]
48 | 3.3 | 1.3 | 3600 | Cc1c(-c2[nH]c3ccc(C4CCC(NC(C)(C)C(=O)N(C)C)CC4)nc3c2C(C)C)cn2ncnc2c1C (stereo not drawn) [Example 495]
49 | 607 | 833 | > 50000 | COCCN(C1CCC(c2ccc3[nH]c(-c4cn5ncnc5c(C)c4C)c(C(C)C)c3n2)CC1)C1(CO)COC1 (stereo not drawn) [Example 499]
50 | 19 | 39 | > 50000 | COCCN(C1CCC(c2ccc3[nH]c(-c4cn5ncnc5c(C)c4C)c(C(C)C)c3n2)CC1)C1(CO)COC1 (stereo not drawn) [Example 500]
51 | 6.3 | 16 | 9550 | Cc1c(-c2[nH]c3ccc(C4CCC(N(C)CC(N)=O)CC4)nc3c2C(C)C)cn2ncnc2c1C (stereo not drawn) [Example 501]
